Data taken from PubChem BioAssay (NCI).
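Exposure lasted 48 hours, with cells grown in 96-well plates and compounds tested at five concentrations. At the TGI there is no net growth.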

Assays:
Assay in all cases: inhibition of tumour cell growth, NCI panel, 48 h
NCI-H23 lung = tested on: NCI-H23 lung
MALME-3M melanoma = tested on: MALME-3M melanoma
MOLT-4 leukemia = tested on: MOLT-4 leukemia
SK-MEL-28 melanoma = tested on: SK-MEL-28 melanoma
NCI-H460 lung = tested on: NCI-H460 lung
TK-10 renal = tested on: TK-10 renal
MDA-MB-435 = tested on: MDA-MB-435
UACC-62 melanoma = tested on: UACC-62 melanoma
OVCAR-8 ovarian = tested on: OVCAR-8 ovarian
SK-MEL-5 melanoma = tested on: SK-MEL-5 melanoma
CCRF-CEM leukemia = tested on: CCRF-CEM leukemia
NCI/ADR-RES ovarian = tested on: NCI/ADR-RES ovarian
LOX IMVI melanoma = tested on: LOX IMVI melanoma
HOP-62 NSCLC = tested on: HOP-62 NSCLC
SK-MEL-2 melanoma = tested on: SK-MEL-2 melanoma
RXF 393 renal = tested on: RXF 393 renal
SW-620 colon = tested on: SW-620 colon
CAKI-1 renal = tested on: CAKI-1 renal
COLO 205 colon = tested on: COLO 205 colon
U251 CNS = tested on: U251 CNS
SNB-75 CNS = tested on: SNB-75 CNS
IGROV1 ovarian = tested on: IGROV1 ovarian
SF-539 CNS = tested on: SF-539 CNS
KM12 colon = tested on: KM12 colon
786-0 renal = tested on: 786-0 renal
SR leukemia = tested on: SR leukemia
MDA-N = tested on: MDA-N
SF-268 CNS = tested on: SF-268 CNS
HCT-15 colon = tested on: HCT-15 colon
SNB-19 CNS = tested on: SNB-19 CNS
NCI-H522 lung = tested on: NCI-H522 lung
OVCAR-5 ovarian = tested on: OVCAR-5 ovarian
HS 578T breast = tested on: HS 578T breast
OVCAR-3 ovarian = tested on: OVCAR-3 ovarian
UO-31 renal = tested on: UO-31 renal
ACHN renal = tested on: ACHN renal
HCC-2998 colon = tested on: HCC-2998 colon
SN12C renal = tested on: SN12C renal
HT29 colon = tested on: HT29 colon
T-47D breast = tested on: T-47D breast
PC-3 prostate = tested on: PC-3 prostate
K-562 leukemia = tested on: K-562 leukemia
MCF7 breast = tested on: MCF7 breast
BT-549 breast = tested on: BT-549 breast
EKVX NSCLC = tested on: EKVX NSCLC
UACC-257 melanoma = tested on: UACC-257 melanoma
DU-145 prostate = tested on: DU-145 prostate
SF-295 CNS = tested on: SF-295 CNS
OVCAR-4 ovarian = tested on: OVCAR-4 ovarian
A549 NSCLC = tested on: A549 NSCLC
M14 melanoma = tested on: M14 melanoma
SK-OV-3 ovarian = tested on: SK-OV-3 ovarian
HCT-116 colon = tested on: HCT-116 colon
NCI-H226 lung = tested on: NCI-H226 lung
RPMI-8226 leukemia = tested on: RPMI-8226 leukemia
A498 renal = tested on: A498 renal
MDA-MB-231 breast = tested on: MDA-MB-231 breast
HL-60(TB) leukemia = tested on: HL-60(TB) leukemia

CC1=C(C(=O)OCCc2ccc([N+](=O)[O-])cc2)C(c2cccc([N+](=O)[O-])c2)C(C(=O)OC(C)C)=C(C)N1 (stereo unspecified)
TGI (NCI-H23 lung): > 100 µM
TGI (MALME-3M melanoma): > 100 µM
TGI (MOLT-4 leukemia): > 100 µM
TGI (SK-MEL-28 melanoma): > 100 µM
TGI (NCI-H460 lung): > 100 µM
TGI (TK-10 renal): > 100 µM
TGI (MDA-MB-435): > 100 µM
TGI (UACC-62 melanoma): > 100 µM
TGI (OVCAR-8 ovarian): > 100 µM
TGI (SK-MEL-5 melanoma): 7.25 µM
TGI (CCRF-CEM leukemia): > 100 µM
TGI (NCI/ADR-RES ovarian): > 100 µM
TGI (LOX IMVI melanoma): > 100 µM
TGI (HOP-62 NSCLC): > 100 µM
TGI (SK-MEL-2 melanoma): > 100 µM
TGI (RXF 393 renal): > 100 µM
TGI (SW-620 colon): > 100 µM
TGI (CAKI-1 renal): > 100 µM
TGI (COLO 205 colon): > 100 µM
TGI (U251 CNS): > 100 µM
TGI (SNB-75 CNS): 76.7 µM
TGI (IGROV1 ovarian): > 100 µM
TGI (SF-539 CNS): > 100 µM
TGI (KM12 colon): > 100 µM
TGI (786-0 renal): > 100 µM
TGI (SR leukemia): > 100 µM
TGI (MDA-N): > 100 µM
TGI (SF-268 CNS): > 100 µM
TGI (HCT-15 colon): > 100 µM
TGI (SNB-19 CNS): > 100 µM
TGI (NCI-H522 lung): 7.71 µM
TGI (OVCAR-5 ovarian): > 100 µM
TGI (HS 578T breast): > 100 µM
TGI (OVCAR-3 ovarian): > 100 µM
TGI (UO-31 renal): > 100 µM
TGI (ACHN renal): > 100 µM
TGI (HCC-2998 colon): > 100 µM
TGI (SN12C renal): > 100 µM
TGI (HT29 colon): > 100 µM
TGI (T-47D breast): > 100 µM
TGI (PC-3 prostate): > 100 µM
TGI (K-562 leukemia): > 100 µM
TGI (MCF7 breast): > 100 µM
TGI (BT-549 breast): > 100 µM
TGI (EKVX NSCLC): > 100 µM
TGI (UACC-257 melanoma): > 100 µM
TGI (DU-145 prostate): > 100 µM
TGI (SF-295 CNS): > 100 µM
TGI (OVCAR-4 ovarian): > 100 µM
TGI (A549 NSCLC): > 100 µM
TGI (M14 melanoma): > 100 µM
TGI (SK-OV-3 ovarian): > 100 µM
TGI (HCT-116 colon): > 100 µM
TGI (NCI-H226 lung): > 100 µM

COc1ccc2c(N=[N+]=[N-])c(-c3ccccc3)c(=O)oc2c1
TGI (NCI-H23 lung): > 100 µM
TGI (MALME-3M melanoma): > 100 µM
TGI (MOLT-4 leukemia): 73.1 µM
TGI (SK-MEL-28 melanoma): > 100 µM
TGI (NCI-H460 lung): > 100 µM
TGI (TK-10 renal): > 100 µM
TGI (MDA-MB-435): > 100 µM
TGI (UACC-62 melanoma): > 100 µM
TGI (OVCAR-8 ovarian): > 100 µM
TGI (SK-MEL-5 melanoma): 77.3 µM
TGI (CCRF-CEM leukemia): > 100 µM
TGI (LOX IMVI melanoma): > 100 µM
TGI (RPMI-8226 leukemia): > 100 µM
TGI (HOP-62 NSCLC): > 100 µM
TGI (SW-620 colon): > 100 µM
TGI (CAKI-1 renal): > 100 µM
TGI (COLO 205 colon): > 100 µM
TGI (A498 renal): > 100 µM
TGI (MDA-MB-231 breast): > 100 µM
TGI (SNB-75 CNS): > 100 µM
TGI (IGROV1 ovarian): > 100 µM
TGI (SF-539 CNS): > 100 µM
TGI (KM12 colon): > 100 µM
TGI (786-0 renal): > 100 µM
TGI (SR leukemia): 67.1 µM
TGI (MDA-N): > 100 µM
TGI (SF-268 CNS): > 100 µM
TGI (HCT-15 colon): > 100 µM
TGI (NCI-H522 lung): > 100 µM
TGI (HS 578T breast): > 100 µM
TGI (ACHN renal): > 100 µM
TGI (HCC-2998 colon): > 100 µM
TGI (SN12C renal): > 100 µM
TGI (HT29 colon): > 100 µM
TGI (T-47D breast): > 100 µM
TGI (PC-3 prostate): > 100 µM
TGI (K-562 leukemia): > 100 µM
TGI (HL-60(TB) leukemia): 60.3 µM
TGI (MCF7 breast): > 100 µM
TGI (BT-549 breast): > 100 µM
TGI (EKVX NSCLC): > 100 µM
TGI (UACC-257 melanoma): 85.6 µM
TGI (DU-145 prostate): > 100 µM
TGI (SF-295 CNS): > 100 µM
TGI (A549 NSCLC): > 100 µM
TGI (M14 melanoma): > 100 µM
TGI (SK-OV-3 ovarian): > 100 µM
TGI (HCT-116 colon): > 100 µM

Cc1cccc(C)c1NC(=O)/C=C/c1ccccc1
TGI (NCI-H23 lung): > 100 µM
TGI (MALME-3M melanoma): > 100 µM
TGI (MOLT-4 leukemia): > 100 µM
TGI (SK-MEL-28 melanoma): > 100 µM
TGI (NCI-H460 lung): > 100 µM
TGI (TK-10 renal): > 100 µM
TGI (MDA-MB-435): > 100 µM
TGI (UACC-62 melanoma): > 100 µM
TGI (OVCAR-8 ovarian): > 100 µM
TGI (SK-MEL-5 melanoma): > 100 µM
TGI (CCRF-CEM leukemia): > 100 µM
TGI (LOX IMVI melanoma): > 100 µM
TGI (RPMI-8226 leukemia): > 100 µM
TGI (HOP-62 NSCLC): > 100 µM
TGI (SK-MEL-2 melanoma): > 100 µM
TGI (SW-620 colon): > 100 µM
TGI (CAKI-1 renal): > 100 µM
TGI (COLO 205 colon): > 100 µM
TGI (U251 CNS): > 100 µM
TGI (A498 renal): > 100 µM
TGI (MDA-MB-231 breast): > 100 µM
TGI (SNB-75 CNS): > 100 µM
TGI (SF-539 CNS): > 100 µM
TGI (KM12 colon): > 100 µM
TGI (786-0 renal): > 100 µM
TGI (SR leukemia): > 100 µM
TGI (MDA-N): > 100 µM
TGI (SF-268 CNS): > 100 µM
TGI (HCT-15 colon): > 100 µM
TGI (SNB-19 CNS): > 100 µM
TGI (NCI-H522 lung): > 100 µM
TGI (OVCAR-5 ovarian): > 100 µM
TGI (HS 578T breast): > 100 µM
TGI (OVCAR-3 ovarian): > 100 µM
TGI (ACHN renal): > 100 µM
TGI (HCC-2998 colon): > 100 µM
TGI (SN12C renal): > 100 µM
TGI (HT29 colon): > 100 µM
TGI (T-47D breast): > 100 µM
TGI (PC-3 prostate): > 100 µM
TGI (K-562 leukemia): > 100 µM
TGI (HL-60(TB) leukemia): > 100 µM
TGI (MCF7 breast): > 100 µM
TGI (BT-549 breast): > 100 µM
TGI (EKVX NSCLC): > 100 µM
TGI (UACC-257 melanoma): > 100 µM
TGI (DU-145 prostate): > 100 µM
TGI (SF-295 CNS): > 100 µM
TGI (OVCAR-4 ovarian): > 100 µM
TGI (A549 NSCLC): > 100 µM
TGI (M14 melanoma): > 100 µM
TGI (SK-OV-3 ovarian): > 100 µM
TGI (HCT-116 colon): > 100 µM
TGI (NCI-H226 lung): > 100 µM
